pIC50: −log10 of the molar value.
How the values were obtained:
recombinant human PARP = recombinant human PARP (Homo sapiens, UniProt P09874); assay: PARP inhibitory activity (in vitro assay); assay type: biochemical; settings: 32P-NAD, 15 minutes at room temperature
Protocol: B. PARP Inhibitory Activity (In Vitro Assay)
The recombinant human PARP (5.3 mg protein/ml) were incubated with a test compound in a 100 μl reaction buffer containing the indicated concentration of 1 mCi/ml ^32P-NAD, 50 mM Tris-HCl, 25 mM MgCl2, 1 mM DTT (dithiothreitol), 0.05 mM NAD (nicotinamido adenine dinucleotide), 1 mg/ml activated DNA, pH8.0. Incubation was for 15 minutes at a room temperature and the reaction was stopped by the addition of 200 μl of ice-cold 20% tricholoroacetic acid followed by rapid filtration through GF/B filters. The filters were treated with scintillation fluid and acid-insoluble counts were measured for quantification of unit activity.
PARP inhibitory activity (%)=[1-(enzyme activity with test compound)/(enzyme activity with vehicle)]×100

[1] = system: Mice MPTP(N-methyl-1,2,3,6-tetrahydropyridine)-induced Parkinson's model; assay: Effect on the level of striatal dopamine and its metabolite in mice MPTP-induced Parkinson's model; assay type: in vivo; settings: 32 mg/kg, two i.p. injections, four days after last MPTP, *P < 0.05 vs MPTP
Protocol: C. Effect of Test Compound on the Level of Striatal Dopamine and its Metabolite in Mice MPTP([…])-induced Parkinson's model
Mice received four i.p. injections of MPTP-HCl (20 mg/kg) in saline at 2 hours intervals and two i.p. injections of Test compound at 30 minutes before 1st injection and 3rd injection of MPTP.
Four days after the last MPTP injection, mice were sacrificed, brains were quickly removed, and striata were dissected out on an ice-cold glass Petri dish. Samples were homogenized in a buffer of 0.1M perchloric acid containing isoproterenol as internal standard. HPLC with electrochemical detection was used to measure striatal levels of DA (dopamine), DOPAC (dihydroxyphenylacetic acid) and HVA (homovanilic acid).
The level of DA, DOPAC and HVA were expressed as a percentage of Normal taken as the 100%.

Chain of recombinant human PARP (P09874 whole entry): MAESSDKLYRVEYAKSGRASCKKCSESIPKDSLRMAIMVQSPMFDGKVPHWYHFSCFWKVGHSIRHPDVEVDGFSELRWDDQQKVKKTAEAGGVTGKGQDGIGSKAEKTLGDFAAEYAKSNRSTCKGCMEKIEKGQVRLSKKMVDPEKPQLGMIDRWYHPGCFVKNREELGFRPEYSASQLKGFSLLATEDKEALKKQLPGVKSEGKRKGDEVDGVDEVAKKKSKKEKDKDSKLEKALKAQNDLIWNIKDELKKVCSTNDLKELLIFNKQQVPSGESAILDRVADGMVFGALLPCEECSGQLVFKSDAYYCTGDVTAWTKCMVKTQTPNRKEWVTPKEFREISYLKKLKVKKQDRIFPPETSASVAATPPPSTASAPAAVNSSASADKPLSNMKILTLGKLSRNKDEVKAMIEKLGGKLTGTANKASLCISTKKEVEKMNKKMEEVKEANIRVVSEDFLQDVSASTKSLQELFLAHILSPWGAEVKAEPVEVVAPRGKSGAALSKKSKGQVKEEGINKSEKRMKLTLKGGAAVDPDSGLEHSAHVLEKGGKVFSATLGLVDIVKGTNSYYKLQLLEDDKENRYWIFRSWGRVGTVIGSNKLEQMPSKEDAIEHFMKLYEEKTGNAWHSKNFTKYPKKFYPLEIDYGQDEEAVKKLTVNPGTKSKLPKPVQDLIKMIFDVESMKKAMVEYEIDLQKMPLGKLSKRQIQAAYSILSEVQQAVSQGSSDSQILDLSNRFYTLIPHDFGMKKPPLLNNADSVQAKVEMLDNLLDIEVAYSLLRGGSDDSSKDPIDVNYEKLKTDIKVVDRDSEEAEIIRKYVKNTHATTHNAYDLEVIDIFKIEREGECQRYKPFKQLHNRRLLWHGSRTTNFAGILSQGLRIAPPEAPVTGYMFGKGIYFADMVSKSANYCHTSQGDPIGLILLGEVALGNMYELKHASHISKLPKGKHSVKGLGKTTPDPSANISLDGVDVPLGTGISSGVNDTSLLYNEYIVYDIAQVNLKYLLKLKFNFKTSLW

SMILES | pIC50 (recombinant human PARP) | Dopamine levels ([1]; striatal DA as percentage of Normal (100%)) | DOPAC levels ([1]; striatal DOPAC as percentage of Normal (100%)) | HVA levels ([1]; striatal HVA as percentage of Normal (100%))
O=c1[nH]c(CCCN2CC=C(c3ccncc3)CC2)nc2c(Cl)cccc12 [Compound C, 8-Chloro-2-{[4-(4-pyridinyl)-3,6-dihydro-1(2H)-pyridinyl]propyl}-4(3H)-quinazolinone] | > 6.30 |  |  | 
O=c1[nH]c(CCCN2CC=C(c3ccccc3)CC2)nc2cccc(Cl)c12 [Compound A, 5-chloro-2-[3-(4-phenyl-3,6-dihydro-1(2H)-pyridinyl)propyl]-4(3H)-quinazolinone] | > 6.30 | 59* % | 58* % | 64* %
O=c1[nH]c(/C=C/CN2CC=C(c3ccc(F)cc3)CC2)nc2c(Cl)cccc12 [Compound B, 8-chloro-2-{(1E)-3-[4-(4-fluorophenyl)-3,6-dihydro-1(2H)-pyridinyl]-1-propenyl}-4(3H)-quinazolinone] | > 6.30 |  |  | 
Cc1cccc2c(=O)[nH]c(CCCN3CCc4c([nH]c5ccccc45)C3)nc12 [Compound D, 8-methyl-2-[3-(1,3,4,9-tetrahydro-2H-pyrido[3,4-b]indol-2-yl)propyl]-4(3H)-quinazolinone] | > 6.30 |  |  | 

— patent US20040077667A1, “Quinazolinone derivatives” (priority 2000, published 2004)
